Reference: ChEMBL document CHEMBL1255298, “Larger vancomycin doses (at least four grams per day) are associated with an increased incidence of nephrotoxicity” (Antimicrob Agents Chemother, 2008)

Columns and labels:
Homo sapiens [1] = organism: Homo sapiens; assay: Nephrotoxicity in patient with gram-positive bacterial infection assessed as serum […] level at > 4 g/day measured within 72 hrs; format: toxicity, organism-based; settings: in vivo
Homo sapiens [2] = organism: Homo sapiens; assay: Nephrotoxicity in patient with gram-positive bacterial infection assessed as change in serum […] level at > 4 g/day measured within 72 hrs; format: toxicity, organism-based; settings: in vivo

Which Activity (Homo sapiens [1]) does the source give for `CN[C@H](CC(C)C)C(=O)N[C@H]1C(=O)N[C@@H](CC(N)=O)C(=O)N[C@H]2C(=O)N[C@H]3C(=O)N[C@H](C(=O)N[C@H](C(=O)O)c4cc(O)cc(O)c4-c4cc3ccc4O)[C@H](O)c3ccc(c(Cl)c3)Oc3cc2cc(c3O[C@@H]2O[C@H](CO)[C@@H](O)[C@H](O)[C@H]2O[C@H]2C[C@](C)(N)[C@H](O)[C@H](C)O2)Oc2ccc(cc2Cl)[C@H]1O` [VANCOMYCIN] here?
Its Activity is 2.1 mg/dL.

What about the Activity (Homo sapiens [2]) of the same compound?
Its Activity is 45.6%.
